Reference: ChEMBL document CHEMBL5143597, “Design and synthesis of novel spirocyclic carboxylic acids as potent and orally bioavailable DGAT1 inhibitors and their biological evaluation” (Bioorg Med Chem Lett, 2022)

Key:
[1] = Drug distribution in Wistar rat liver 10 mg/kg, po and measured at 8 hrs post dose by LC-MS/MS analysis; format: ADME, organism-based; conditions: read-out: Ct
[2] = Drug distribution in Wistar rat plasma 10 mg/kg, po and measured at 8 hrs post dose by LC-MS/MS analysis; format: ADME, organism-based
[3] = Oral bioavailability in C57BL/6 mouse 10 mg/kg or 5 mg/kg, iv and measured up to 24 hrs by LC-MS/MS analysis; format: ADME, organism-based; conditions: in vivo
[4] = Drug distribution in C57BL/6 mouse plasma 10 mg/kg, po and measured at 2 hrs post dose by LC-MS/MS analysis; format: ADME, organism-based
[5] = Plasma protein binding in rat; format: ADME, cell-free; conditions: read-out: PPB
[6] = Drug distribution in C57BL/6 mouse skeletal muscle 10 mg/kg, po and measured at 1 hrs post dose by LC-MS/MS analysis; format: ADME, organism-based, Skeletal muscle tissue; conditions: read-out: Ct
[7] = Metabolic stability in rat liver microsomes assessed as parent compound remaining at 1 uM and measured at 30 mins by LC-MS/MS analysis; format: ADME, Microsome; conditions: read-out: Stability
[8] = Clearance in C57BL/6 mouse at 5 mg/kg, iv r 10 mg/kg, po and measured up to 24 hrs by LC-MS/MS analysis; format: ADME, organism-based; conditions: in vivo
[9] = Drug distribution in Wistar rat plasma 10 mg/kg, po and measured at 1 hrs post dose by LC-MS/MS analysis; format: ADME, organism-based
[10] = Volume of distribution at steady state in C57BL/6 mouse at 5 mg/kg, iv or 10 mg/kg, po and measured up to 24 hrs by LC-MS/MS analysis; format: ADME, organism-based; conditions: in vivo, read-out: Vdss
[11] = Clearance in Wistar rat at 3 mg/kg, iv or 10 mg/kg, po and measured up to 24 hrs by LC-MS/MS analysis; format: ADME, organism-based; conditions: in vivo
[12] = Drug distribution in C57BL/6 mouse plasma 10 mg/kg, po and measured at 8 hrs post dose by LC-MS/MS analysis; format: ADME, organism-based
[13] = Drug distribution in C57BL/6 mouse brain 10 mg/kg, po and measured at 8 hrs post dose by LC-MS/MS analysis; format: ADME, organism-based; conditions: read-out: Ct
[14] = Drug distribution in C57BL/6 mouse plasma 10 mg/kg, po and measured at 1 hrs post dose by LC-MS/MS analysis; format: ADME, organism-based
[15] = Half life in C57BL/6 mouse at 5 mg/kg, iv or 10 mg/kg, po and measured up to 24 hrs by LC-MS/MS analysis; format: ADME, organism-based; conditions: in vivo
[16] = AUC in Wistar rat at 3 mg/kg, iv or 10 mg/kg, po and measured up to 24 hrs by LC-MS/MS analysis; format: ADME, organism-based; parameters: dose 3 mg/kg, time < 24 hrs, route iv; conditions: in vivo
[17] = Drug distribution in C57BL/6 mouse brain 10 mg/kg, po and measured at 2 hrs post dose by LC-MS/MS analysis; format: ADME, organism-based; conditions: read-out: Ct
[18] = Drug distribution in Wistar rat adipose tissue 10 mg/kg, po and measured at 2 hrs post dose by LC-MS/MS analysis; format: ADME, organism-based; conditions: read-out: Ct
[19] = Oral bioavailability in Wistar rat at 10 mg/kg or 3 mg/kg, iv and measured up to 24 hrs by LC-MS/MS analysis; format: ADME, organism-based; conditions: in vivo
[20] = Drug distribution in Wistar rat liver 10 mg/kg, po and measured at 1 hrs post dose by LC-MS/MS analysis; format: ADME, organism-based; conditions: read-out: Ct
[21] = Metabolic stability in human liver microsomes assessed as parent compound remaining at 1 uM and measured at 30 mins by LC-MS/MS analysis; format: ADME, Microsome; conditions: read-out: Stability
[22] = Drug distribution in Wistar rat adipose tissue 10 mg/kg, po and measured at 1 hrs post dose by LC-MS/MS analysis; format: ADME, organism-based; conditions: read-out: Ct
[23] = Drug distribution in C57BL/6 mouse liver 10 mg/kg, po and measured at 8 hrs post dose by LC-MS/MS analysis; format: ADME, organism-based; conditions: read-out: Ct
[24] = Drug distribution in C57BL/6 mouse liver 10 mg/kg, po and measured at 2 hrs post dose by LC-MS/MS analysis; format: ADME, organism-based; conditions: read-out: Ct
[25] = Drug distribution in C57BL/6 mouse skeletal muscle 10 mg/kg, po and measured at 2 hrs post dose by LC-MS/MS analysis; format: ADME, organism-based, Skeletal muscle tissue; conditions: read-out: Ct
[26] = Drug distribution in Wistar rat plasma 10 mg/kg, po and measured at 2 hrs post dose by LC-MS/MS analysis; format: ADME, organism-based
[27] = Drug distribution in C57BL/6 mouse brain 10 mg/kg, po and measured at 1 hrs post dose by LC-MS/MS analysis; format: ADME, organism-based; conditions: read-out: Ct
[28] = Drug distribution in Wistar rat liver 10 mg/kg, po and measured at 2 hrs post dose by LC-MS/MS analysis; format: ADME, organism-based; conditions: read-out: Ct
[29] = Drug distribution in Wistar rat adipose tissue 10 mg/kg, po and measured at 8 hrs post dose by LC-MS/MS analysis; format: ADME, organism-based; conditions: read-out: Ct
[30] = Volume of distribution at steady state in Wistar rat at 3 mg/kg, iv or 10 mg/kg, po and measured up to 24 hrs by LC-MS/MS analysis; format: ADME, organism-based; conditions: in vivo, read-out: Vdss
[31] = Apparent permeability across apical to basolateral side in MDCK cells at 2.5 uM for 90 mins; format: ADME, cell-based, Canis lupus familiaris; conditions: dog
[32] = Drug distribution in C57BL/6 mouse adipose tissue 10 mg/kg, po and measured at 2 hrs post dose by LC-MS/MS analysis; format: ADME, organism-based; conditions: read-out: Ct
[33] = Drug distribution in C57BL/6 mouse skeletal muscle 10 mg/kg, po and measured at 8 hrs post dose by LC-MS/MS analysis; format: ADME, organism-based, Skeletal muscle tissue; conditions: read-out: Ct
[34] = Drug distribution in C57BL/6 mouse liver 10 mg/kg, po and measured at 1 hrs post dose by LC-MS/MS analysis; format: ADME, organism-based; conditions: read-out: Ct
[35] = Drug distribution in C57BL/6 mouse adipose tissue 10 mg/kg, po and measured at 1 hrs post dose by LC-MS/MS analysis; format: ADME, organism-based; conditions: read-out: Ct
[36] = AUC in C57BL/6 mouse at 5 mg/kg, iv or 10 mg/kg, po and measured up to 24 hrs by LC-MS/MS analysis; format: ADME, organism-based; parameters: time < 24 hrs, dose 5 mg/kg, route iv; conditions: in vivo
[37] = Cmax in C57BL/6 mouse at 5 mg/kg, iv or 10 mg/kg, po and measured up to 24 hrs by LC-MS/MS analysis; format: ADME, organism-based; parameters: dose 5 mg/kg, time < 24 hrs, route iv; conditions: in vivo
hERG (KCNH2) = hERG (KCNH2) (Homo sapiens, UniProt Q12809); experiment: Displacement of [3H]astemizole from human ERG expressed in HEK293 cell membrane at 30 uM for 2 hrs by Radiometric displacement assay; format: toxicity; conditions: HEK293 cell membranes that express hERG, probe [3H]astemizole
[38] = Tmax in Wistar rat at 3 mg/kg, iv or 10 mg/kg, po and measured up to 24 hrs by LC-MS/MS analysis; format: ADME, organism-based; conditions: in vivo
[39] = Cmax in Wistar rat at 3 mg/kg, iv or 10 mg/kg, po and measured up to 24 hrs by LC-MS/MS analysis; format: ADME, organism-based; parameters: dose 3 mg/kg, time < 24 hrs, route iv; conditions: in vivo
[40] = Drug distribution in C57BL/6 mouse adipose tissue 10 mg/kg, po and measured at 8 hrs post dose by LC-MS/MS analysis; format: ADME, organism-based; conditions: read-out: Ct
[41] = Half life in Wistar rat at 3 mg/kg, iv or 10 mg/kg, po and measured up to 24 hrs by LC-MS/MS analysis; format: ADME, organism-based; conditions: in vivo
[42] = Metabolic stability in mouse liver microsomes assessed as parent compound remaining at 1 uM and measured at 30 mins by LC-MS/MS analysis; format: ADME, Microsome; conditions: read-out: Stability
[43] = Plasma protein binding in mouse; format: ADME, cell-free; conditions: read-out: PPB (converted)
[44] = Tmax in C57BL/6 mouse at 5 mg/kg, iv or 10 mg/kg, po and measured up to 24 hrs by LC-MS/MS analysis; format: ADME, organism-based; conditions: in vivo

Chain of hERG (KCNH2) (Q12809 whole entry): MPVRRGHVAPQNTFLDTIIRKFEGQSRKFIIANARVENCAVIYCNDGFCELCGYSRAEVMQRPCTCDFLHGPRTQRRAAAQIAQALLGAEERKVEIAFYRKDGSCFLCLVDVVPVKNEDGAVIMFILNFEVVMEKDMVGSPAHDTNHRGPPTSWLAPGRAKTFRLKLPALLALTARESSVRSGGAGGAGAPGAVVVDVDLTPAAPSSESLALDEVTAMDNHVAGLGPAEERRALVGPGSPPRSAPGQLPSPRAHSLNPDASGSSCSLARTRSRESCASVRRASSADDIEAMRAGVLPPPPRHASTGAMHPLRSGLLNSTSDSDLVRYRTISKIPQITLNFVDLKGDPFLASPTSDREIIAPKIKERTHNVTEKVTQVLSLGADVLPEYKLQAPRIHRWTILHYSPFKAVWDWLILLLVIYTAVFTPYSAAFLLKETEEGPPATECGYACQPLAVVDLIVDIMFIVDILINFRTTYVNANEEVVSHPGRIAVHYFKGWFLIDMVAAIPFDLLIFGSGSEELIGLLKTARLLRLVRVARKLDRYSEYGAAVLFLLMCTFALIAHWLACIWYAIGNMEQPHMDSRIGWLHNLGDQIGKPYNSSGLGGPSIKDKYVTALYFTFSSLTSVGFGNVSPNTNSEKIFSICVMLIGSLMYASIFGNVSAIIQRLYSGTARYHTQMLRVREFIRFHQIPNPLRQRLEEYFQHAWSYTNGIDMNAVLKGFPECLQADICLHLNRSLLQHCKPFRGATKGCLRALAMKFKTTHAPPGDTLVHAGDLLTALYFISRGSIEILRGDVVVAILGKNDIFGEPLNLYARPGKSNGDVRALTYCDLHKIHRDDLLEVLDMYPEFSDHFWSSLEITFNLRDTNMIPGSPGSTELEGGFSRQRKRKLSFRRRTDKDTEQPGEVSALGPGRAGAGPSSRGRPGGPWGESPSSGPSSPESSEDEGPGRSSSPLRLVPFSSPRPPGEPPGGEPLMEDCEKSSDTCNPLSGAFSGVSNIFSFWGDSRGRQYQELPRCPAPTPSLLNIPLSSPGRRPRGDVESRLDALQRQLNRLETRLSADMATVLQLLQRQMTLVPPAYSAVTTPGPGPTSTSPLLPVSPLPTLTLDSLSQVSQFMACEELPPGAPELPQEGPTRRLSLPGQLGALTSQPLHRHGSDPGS

O=C(Nc1ccc(N2CCC3(CC2)CC(C(=O)O)C3)nc1)c1nnc(Nc2ccc(F)c(F)c2)o1
concentration at 8 h [1]: 32000 nM
concentration at 8 h [2]: 4000 nM
bioavailability [3]: 97%
concentration at 2 h [4]: 1160 nM
fraction unbound [5]: 0.01
concentration at 1 h [6]: 170 nM
remaining at 0.5 h, 1 µM [7]: 92%
clearance [8]: 58 mL/min/kg
concentration at 1 h [9]: 37000 nM
Vd [10]: 2.5 L/kg
clearance [11]: 2.3 mL/min/kg
concentration at 8 h [12]: 40 nM
concentration at 8 h [13]: 110 nM
concentration at 1 h [14]: 1900 nM
half-life [15]: 60 min
AUC at 24 h [16]: 47 µM·h
concentration at 2 h [17]: 260 nM
concentration at 2 h [18]: 2500 nM
bioavailability [19]: 92%
concentration at 1 h [20]: 105000 nM
remaining at 0.5 h, 1 µM [21]: 89%
concentration at 1 h [22]: 1890 nM
concentration at 8 h [23]: 5300 nM
concentration at 2 h [24]: 96000 nM
concentration at 2 h [25]: 180 nM
concentration at 2 h [26]: 47000 nM
concentration at 1 h [27]: 360 nM
concentration at 2 h [28]: 72000 nM
concentration at 8 h [29]: 340 nM
Vd [30]: 0.3 L/kg
Papp A→B at 1.5 h, 2.5 µM [31]: 2.8 ×10⁻⁶ cm/s
concentration at 2 h [32]: 140 nM
concentration at 8 h [33]: 20 nM
concentration at 1 h [34]: 153000 nM
concentration at 1 h [35]: 270 nM
AUC at 24 h [36]: 2.9 µM·h
Cmax [37]: 4500 nM
inhibition at 2 h, 30 µM (hERG (KCNH2)): 22%
Tmax [38]: 30 min
Cmax [39]: 57000 nM
concentration at 8 h [40]: 80 nM
half-life [41]: 210 min
remaining at 0.5 h, 1 µM [42]: 94%
fraction unbound [43]: 0.02
Tmax [44]: 30 min
